From ChEMBL document CHEMBL3638854, “Chemical compounds” (2015)

Target: T1, Ileal sodium/bile acid cotransporter (Homo sapiens, UniProt Q12908)
T1 sequence (Q12908 whole entry): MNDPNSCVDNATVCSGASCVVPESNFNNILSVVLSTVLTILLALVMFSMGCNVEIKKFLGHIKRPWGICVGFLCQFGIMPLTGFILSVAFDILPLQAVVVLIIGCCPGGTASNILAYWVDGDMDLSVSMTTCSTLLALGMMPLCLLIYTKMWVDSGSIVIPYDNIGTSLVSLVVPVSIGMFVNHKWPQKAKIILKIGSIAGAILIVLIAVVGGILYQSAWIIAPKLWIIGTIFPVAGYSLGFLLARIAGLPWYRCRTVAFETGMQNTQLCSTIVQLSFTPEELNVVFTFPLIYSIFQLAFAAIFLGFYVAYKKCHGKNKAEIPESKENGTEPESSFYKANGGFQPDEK
Assay: Inhibition Assay: On the day of the uptake experiment, 10 mM HEPES was added to Hank's Balanced Salt Solution, and the pH was adjusted to 7.4 with TRIS (HBSSH). The assay buffer was prepared by adding 100 uM [3H]-taurocholate and 10 uM cold taurocholate to room temperature HBSSH. A separate washing buffer was prepared by adding 10 uM cold taurocholate to HBSSH (30 ml per assay plate) and placed on ice. Using 100% DMSO, 8 point, 3-fold dilution curves for each test compound was prepared starting at 200 uM. Similarly, an 8 point dose response curve was prepared of the control compound [(3R,5R)-3-butyl-3-ethyl-7,8-bis(methyloxy)-5-phenyl-2,3,4,5-tetrahydro-1,4-benzothiazepine 1,1-dioxide (Brieaddy, L. E. WO9605188, 1996)] starting at 1.8 mM. Drug plates were created by adding 3 uL of each concentration to a v-bottom 96-well plate then diluted 60-fold with 177 uL of assay buffer. Plates were removed from the incubator and allowed to cool to ambient temperature.

Work on `CCCC[C@]1(CC)CS(=O)(=O)c2cc(CN[C@@H](CCS(C)(=O)=O)C(=O)O)c(OC)cc2[C@@H](c2ccccc2)N1` yielded an IC50 of 13 nM.
